{"source": "paper PMC11277476", "about": "“Synthesis and Biological Evaluation of Novel 2-Aroyl Benzofuran-Based Hydroxamic Acids as Antimicrotubule Agents” (International Journal of Molecular Sciences, 2024)", "key": {"HeLa cells": {"tested_on": "HeLa cells", "assay": "In vitro growth inhibition (resazurin, 72 h), HeLa", "assay_type": "cell-based", "conditions": "Homo sapiens, concentration inhibiting tumor cell proliferation by 50%, mean ± SE"}, "MDA-MB-231 cells": {"tested_on": "MDA-MB-231 cells", "assay": "In vitro growth inhibition (resazurin, 72 h), MDA-MB-231", "assay_type": "cell-based", "conditions": "Homo sapiens, mean ± SE"}, "A549 cells": {"tested_on": "A549 cells", "assay": "In vitro growth inhibition (resazurin, 72 h), A549", "assay_type": "cell-based", "conditions": "Homo sapiens, mean ± SE"}, "HT-29 cells": {"tested_on": "HT-29 cells", "assay": "In vitro growth inhibition (resazurin, 72 h), HT-29", "assay_type": "cell-based", "conditions": "Homo sapiens, mean ± SE"}, "MCF-7 cells": {"tested_on": "MCF-7 cells", "assay": "In vitro growth inhibition (resazurin, 72 h), MCF-7", "assay_type": "cell-based", "conditions": "Homo sapiens, MCF7, mean ± SE"}, "human recombinant HDAC8": {"molecular_target": "T1, human recombinant HDAC8 (Homo sapiens, UniProt Q9BY41)", "T1 construct": "purchased BPS Bioscience 50008", "T1 sequence (Q9BY41 1-377)": "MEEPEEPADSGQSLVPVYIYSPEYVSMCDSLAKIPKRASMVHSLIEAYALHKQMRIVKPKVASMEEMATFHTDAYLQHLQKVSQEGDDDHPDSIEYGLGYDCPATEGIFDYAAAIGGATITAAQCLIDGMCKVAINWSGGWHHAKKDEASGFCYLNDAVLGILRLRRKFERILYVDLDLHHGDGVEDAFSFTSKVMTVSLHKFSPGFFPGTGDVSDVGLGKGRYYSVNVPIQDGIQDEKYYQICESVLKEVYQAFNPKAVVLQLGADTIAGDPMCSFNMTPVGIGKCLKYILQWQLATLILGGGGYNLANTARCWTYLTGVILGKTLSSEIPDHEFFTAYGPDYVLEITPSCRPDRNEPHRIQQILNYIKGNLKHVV", "assay": "HDAC isoform inhibition, fluorogenic substrate, HDAC8", "assay_type": "biochemical", "conditions": "mean ± SE, read-out: IC50 (µM) hHDAC8", "protocol": "Further experiments were also carried out to evaluate the inhibitory activities of test compounds on selected HDAC isoforms. […] Following an incubation of 15 min at RT, fluorescence was measured in an EnSight multimodal plate reader (PerkinElmer, Boston, MA, USA) with an excitation wavelength of 360 nm and an emission wavelength of 450 nm."}, "[1]": {"tested_on": "panel of five human cancer cell lines (HeLa, MDA-MB-231, A549, HT-29, MCF-7)", "assay": "In vitro growth inhibition, range over the panel of five cancer cell lines", "conditions": "for IC50: read-out: IC50 values, range over the cancer cell line panel", "description": "All the cell lines were purchased from the American Type Culture Collection (ATCC, Manassas, VA, USA). Drug stock solutions were prepared for each compound by dissolving them in DMSO at 10 mM.\nCancer cells were seeded in tissue treated, flat bottom, 384-well plates (Corning, Corning, NY, USA) according to their optimal density, in 27 μL of complete medium per well, using a Microlab STAR 96-CORE liquid handling system (Hamilton Bonaduz, Bonaduz, Switzerland) as described previously [75]. Each compound was tested in a 6-points 2-fold dose–response curve, and each dose was tested in duplicate within each plate, in three independent experiments. The final concentration of DMSO in the wells never exceeded 0.1%, which was the maximum concentration.\nOnly plates with acceptable Z-prime quality metrics (Z′ > 0.6) were further analyzed for the drug screening. Raw data were normalized according to the following equation: cell viability (%) = (x − POS)/(NEG − POS) × 100, where x is the relative fluorescence units (RFU) collected from each single well, NEG is the mean of intraplate negative controls (DMSO, corresponding to 100% cell viability), and POS is the mean of intraplate positive controls (Bortezomib 1 μΜ, equal to 0% cell viability)."}, "bovine brain tubulin": {"tested_on": "bovine brain tubulin", "assay": "Inhibition of tubulin polymerization (turbidimetric)", "assay_type": "biochemical", "conditions": "tubulin at 10 μM; 20 min incubation at 30 °C; read-out: Tubulin Assembly IC50 ± SD", "protocol": "Bovine brain tubulin was purified as described previously. To evaluate the effects of the compounds on tubulin assembly in vitro [77], varying concentrations were preincubated with 10 μM tubulin in 0.8 M monosodium glutamate (pH 6.6) at 30 °C, and the reaction mixtures were then cooled to 0 °C. After addition of GTP, the mixtures were transferred to 0 °C cuvettes in Beckman Coulter (Brea, CA, USA) DU-7400/DU-7500 recording spectrophotometers equipped with electronic temperature controllers and were warmed to 30 °C, and the assembly of tubulin was observed turbidimetrically. […] Inhibition of colchicine binding to tubulin was measured as described before, except that the reaction mixtures contained 0.5 μM tubulin and 5 μM each of [^3H]colchicine and test compound. Only one DEAE-cellulose filter was used per sample, and filtration was via gravity."}, "[2]": {"tested_on": "acetylated histone H3 (Ac-H3K9) in HT-29 cells", "assay": "Western blot of acetylated histone H3 (Ac-H3K9) in HT-29 cells", "assay_type": "cell-based, human", "conditions": "10 µM, 6 h", "protocol": "HT-29 cells were treated with selected compounds for 6 h at 10 µM, lysed, and then processed as previously described.\nAntibodies directed against total histone H3 and its acetylated form (Ac-H3K9) were purchased from Cell Signaling Technology, Danvers, Massachusetts, while anti-vinculin antibody was purchased from Santa Cruz Biotechnology. Membranes were visualized using ECL select (GE Healthcare), and images were acquired using the iBright FL1500 Imaging System (Thermo Fisher Scientific, Waltham, MA, USA). Anti-vinculin (1:25,000, Santa Cruz Biotechnology, Dallas, TX, USA) was used as loading controls."}}, "data": [{"smiles": "COc1cc2oc(C(=O)c3cc(OC)c(OC)c(OC)c3)c(C)c2cc1/C=C/C(=O)NO", "note": "[Compound 6a, (E)-N-Hydroxy-3-(6-methoxy-3-methyl-2-(3,4,5-trimethoxybenzoyl)benzofuran-5-yl)acrylamide]", "values": [{"measurement": "IC50", "setting": "HeLa cells", "value": "5.2 ± 0.03", "unit": "nM"}, {"measurement": "IC50", "setting": "MDA-MB-231 cells", "value": "5 ± 0.04", "unit": "nM"}, {"measurement": "IC50", "setting": "A549 cells", "value": "23.5 ± 0.24", "unit": "nM"}, {"measurement": "IC50", "setting": "HT-29 cells", "value": "7.5 ± 0.11", "unit": "nM"}, {"measurement": "IC50", "setting": "MCF-7 cells", "value": "7 ± 0.2", "unit": "nM"}, {"measurement": "IC50", "setting": "human recombinant HDAC8", "value": "> 30", "unit": "µM"}, {"measurement": "IC50", "setting": "[1]", "value": "5 to 23", "unit": "nM"}, {"measurement": "GI50", "setting": "[1]; read-out: antiproliferative GI50 values, range over the five tumor lines", "value": "5 to 23", "unit": "nM"}]}, {"smiles": "COc1ccc2c(C)c(C(=O)c3cc(OC)c(OC)c(OC)c3)oc2c1", "note": "[TR187, 2-(3′,4′,5′-trimethoxybenzoyl)-3-methyl-6-methoxy benzofuran, reference compound]", "values": [{"measurement": "IC50", "setting": "HeLa cells", "value": "8.5 ± 0.11", "unit": "nM"}, {"measurement": "IC50", "setting": "MDA-MB-231 cells", "value": "3.1 ± 0.01", "unit": "nM"}, {"measurement": "IC50", "setting": "A549 cells", "value": "24 ± 0.44", "unit": "nM"}, {"measurement": "IC50", "setting": "HT-29 cells", "value": "35.2 ± 0.82", "unit": "nM"}, {"measurement": "IC50", "setting": "MCF-7 cells", "value": "72 ± 4", "unit": "nM"}, {"measurement": "IC50", "setting": "bovine brain tubulin", "value": 620, "unit": "nM"}, {"measurement": "acetylated histone H3 (Ac-H3K9) level, Western blot", "setting": "[2]", "value": "does not show any inhibitory activity towards HDAC even at the cellular level"}, {"measurement": "IC50", "setting": "[1]", "value": "3 to 72", "unit": "nM"}]}]}
